Data published in US20120083518A1, “Cancer Treatment Targeting BRCA1-IRIS” (priority 2010, published 2012).

Columns and labels:
Type in all cases: cell-based, human
[1] = test system: p53 phosphorylation in HME cells; experiment: Immunoblot of p53 phosphorylation; settings: 10 μM CCT007093 alone
Protocol: (§1) CCT007093 is a novel WIP1 specific inhibitor. The HME and induced IRIS3 (72 h) cells were untreated or exposed to 20 mJ/cm^2 UVC, 10 μM of CCT007093 or both. BRCA1-IRIS, p53 and WIP1 level was low in HME and high in IRIS3 cells, whereas p38MAPK was high in both the cell lines. These levels were not changed in both cell lines following any of the treatments (FIG. 9H). p-p53 level was low in untreated HME and IRIS3 cells (FIG. 9H, lanes 1 and 5), rose after UVC treatment, decreased after CCT007093 treatment and increased in UVC+CCT007093-treated HME cells (FIG. 9H) Importantly, in induced IRIS3 cells, p-p53 level decreased after UVC treatment, increased after CCT007093 treatment and remained high after the combined treatment (FIG. 9H).
(§2) BT474, MCF7 and SKBR3 cells were maintained in Roswell Park Memorial Institute medium (Invitrogen) supplemented with 10% fetal bovine serum and antibiotics. SOAS2 and HEK293T cells were maintained Dulbecco's Modified Eagle medium (Invitrogen) with 10% serum. HME maintenance was as described in ElShamy and Livingston, 2004. Cancer or HME cells were at 80% confluence in 10 cm^2 dishes and were treated with UVC (different doses), SB203580 (10 μM, Sigma, St. Louis, Mo., USA), etoposide (10 μM, Sigma) and H2O2 (15 μM, Sigma) or CCT007093 (10 μM, Santa Cruz, Santa Cruz, Calif., USA), and these drugs were added directly to the cells.

[2] = test system: p38MAPK phosphorylation in HME cells; experiment: Immunoblot of p38MAPK phosphorylation; settings: 10 μM CCT007093
Protocol: as §1, §2

[3] = test system: p38MAPK phosphorylation in induced IRIS3 cells; experiment: Immunoblot of p38MAPK phosphorylation (p-p38MAPK/p38MAPK, ImageJ)
Protocol: (§3) IRIS 1 and IRIS3 induced for 72 h were exposed to 0, 10, 20 or 40 mJ/cm^2 of UVC irradiation. After 24 h, compared with IRIS1, induced IRIS3 cells treated with 0 mJ/cm^2 UVC had higher levels of BRCA1-IRIS, p53, WIP1, p-p38MAPK, yet similar levels of p38MAPK and p-p53 (FIG. 9F). In 10 and 20 mJ/cm^2 treated cells, BRCA1-IRIS, p53 and WIP1 levels remained higher in induced IRIS3 and no change in p38MAPK level (FIG. 9F). […] Finally, in 40 mJ/cm^2 UVC-treated cells, BRCA1-IRIS, p53 and WIP1 levels were still detectable in induced IRIS3 but not in IRIS1 cells (FIG. 9F). In contrast, IRIS1 and not induced IRIS3 cells contained detectable levels of p-p53 and p-p38MAPK (FIG. 9F). The intensity of the p53, p-p53, p38MAPK and p-p38MAPK bands in FIG. 9F were measured using ImageJ program (NIH) to estimate the level of p53 and p38MAPK activation in BRCA1-IRIS overexpressing cells. About 50% of p53 in IRIS1 cells was phosphorylated before UVC exposure that rose to 80-100% after the exposure (FIG. 9G). In contrast, only 20% of p53 was phosphorylated in induced IRIS3 cells before UVC dropping to <10% after UVC (FIG. 9G). p38MAPK phosphorylation was undetectable in IRIS1 cells before UVC exposure but rose to ˜100% after UVC (FIG. 9G). In induced IRIS3 cells, the 100% of p38MAPK phosphorylated before UVC exposure dropped to <20% after UVC exposure (FIG. 9G). […]

HME cells = experiment: TUNEL detection (FragEL DNA fragmentation kit)
Protocol: (§4) HME and induced IRIS3 (72 h) cells were exposed to 40 mJ/cm^2 UVC, 10 μM of etoposide or 15 μM of H2O2 in the presence or absence of 10 μM of SB203580, p53 siRNA or 10 μM of CCT007093.
(§5) The Flurescein FragEL DNA Fragmentation Detection Kit was used according to the supplier (Calbiochem) protocol.

induced IRIS3 cells = experiment: TUNEL detection (FragEL DNA fragmentation kit)
Protocol: as §4, §5

[4] = test system: p53 phosphorylation in induced IRIS3 cells; experiment: Immunoblot of p53 phosphorylation (p-p53/p53, ImageJ)
Protocol: as §3

MCF7 cells = experiment: LIVE/DEAD cell death assay; settings: for level of cell death: MCF7, all conditions, 10 μM etoposide or 15 μM H2O2
Protocol: (§6) MCF7 and SKBR3 cell lines transfected with luciferase or BRCA1-IRIS siRNAs in the presence or absence of p38MAPK inhibitor (SB203580) or p53 siRNA were exposed to 40 mJ/cm^2 UVC, 10 μM etoposide or 15 μM H2O2. […] This was confirmed by phase-contrast cell counting (FIG. 9I) and trypan blue exclusion using ViCell (Beckman Coulter, Fullerton, Calif., USA, FIG. 9J).
(§7) The LIVE/DEAD Fixable Dead Cell Stain Kit was used according to the supplier (Invitrogen) protocol.

SKBR3 cells = experiment: LIVE/DEAD cell death assay; settings: for level of cell death: SKBR3, all conditions, 10 μM etoposide or 15 μM H2O2
Protocol: as §6, §7

HOSE/survivin cells = experiment: MTT cell viability after cisplatin; settings: cisplatin 48 h
Description: (§8) MTT and activated caspases 3 and 7 assays. Done using the Cell Titer 96® AQueous One Solution Cell Proliferation Assay (#G3580, Promega) Caspase-Glo 3/7 Assay (#G8091, Promega), respectively as per manufacturer's instructions. Measurements were obtained using optical at 490 nm. Each experiment was done in 8 samples and the whole experiment was repeated 3 separate times.

HOSE/AKT1 cells = experiment: MTT cell viability after cisplatin; settings: HOSE/AKT1, cisplatin 48 h
Description: as §8

HOSE/vector cells = experiment: MTT cell viability after cisplatin; settings: cisplatin 48 h
Description: as §8

HOSE/IRIS cells = experiment: MTT cell viability after cisplatin; settings: cisplatin 48 h
Description: as §8

HOSE/AKT3 cells = experiment: MTT cell viability after cisplatin; settings: HOSE/AKT3, cisplatin 48 h
Description: as §8

HOSE/AKT2 cells = experiment: MTT cell viability after cisplatin; settings: HOSE/AKT2, cisplatin 48 h
Description: as §8

[5] = test system: AKT1, AKT2 and survivin expression in OVCAR-5 cells; experiment: Immunoblot of AKT1, AKT2 and survivin; settings: OVCAR-5, cisplatin 35 μM 24 h alone
Description: (§9) Immunoblotting. […] Bcl-2 (clone 124; Dako Diagnostics AG), Bcl-xL (Transduction Laboratories), actin (Ab-1, CP01, Oncogene) and phospho-Survivin (T34, Novus Biologicals). Mouse antibody against BRCA1-IRIS was generated in our laboratory.
(§10) BRCA1-IRIS downregulation sensitizes ovarian cancer cell lines to cisplatin-induced survivin downregulation and cell death.

IGROV-1 cells = experiment: MTT cell viability after cisplatin; settings: IGROV-1, cisplatin 48 h
Protocol: as §8, with “times. […] As expected, low viability and high level of active caspase3/7 were detected in IGROV-1 (FIG. 5C), showing an IC50 of ˜5 μM.” for “times.”

OVCAR-5 cells = experiment: MTT cell viability after cisplatin; settings: OVCAR-5, cisplatin 48 h
Protocol: as §8, with “times. […] As expected, low viability and high level of active caspase3/7 were detected in IGROV-1 (FIG. 5C), showing an IC50 of ˜5 μM.” for “times.”

MCAS cells = experiment: MTT cell viability after cisplatin; settings: cisplatin 48 h
Protocol: as §8, with “times. […] As expected, low viability and high level of active caspase3/7 were detected in IGROV-1 (FIG. 5C), showing an IC50 of ˜5 μM.” for “times.”

SK-OV-3 cells = experiment: MTT cell viability after cisplatin; settings: SK-OV-3, cisplatin 48 h
Protocol: as §8, with “times. […] As expected, low viability and high level of active caspase3/7 were detected in IGROV-1 (FIG. 5C), showing an IC50 of ˜5 μM.” for “times.”

[6] = test system: AKT and survivin expression in MCAS cells; experiment: Immunoblot of AKT, p-AKT and survivin; settings: cisplatin 35 μM 24 h alone
Protocol: as §9
(§11) BRCA1-IRIS overexpression-induced survivin expression is partially PI3′K/AKT-independent. To study this further, MCAS or SK-OV-3 cells were exposed to the PI3′K inhibitor, LY294002 for 24 h or were transfected with BRCA1-IRIS siRNA for 48 h before they were exposed to LY294002 and left for another 24 h. […] Indeed, LY294002 decreased survivin expression in HOSE/vector cells but had little effect in HOSE/IRIS cells (FIG. 3B).
as §10

[7] = test system: BRCA1-IRIS, AKT and survivin expression in HOSE cells; experiment: Immunoblot of BRCA1-IRIS, AKT and survivin after cisplatin; settings: 24 h
Description: as §9
Ovarian cancer cells expressing high level of survivin usually are cisplatin-resistant.

[8] = test system: BRCA1-IRIS, AKT and survivin expression in SK-OV-3 cells; experiment: Immunoblot of BRCA1-IRIS, AKT, p-AKT and survivin; settings: SK-OV-3, cisplatin 35 μM 24 h alone
Protocol: as §9
BRCA1-IRIS-induced survivin expression is partially AKT-dependent. AKT (siRNA silences AKT1 and AKT2), BRCA1-IRIS, survivin or AKT and BRCA1-IRIS were silenced in SK-OV-3 cells (endogenously overexpressing all proteins, see FIG. 1B) for 72 h. […] Survivin silencing had no effect on BRCA1-IRIS or AKTs the expression (FIG. 2G). Identical results were obtained using MCAS cell line.
as §11, §10

[9] = test system: p53 and p38MAPK phosphorylation in IRIS1 cells; experiment: Immunoblot of p-p53 and p-p38MAPK after etoposide
Protocol: (§12) Induced IRIS2 on the other hand maintained high level of BRCA1-IRIS, p53 and WIP1 even in the presence of 50 μM of etoposide and had similar level of total p38MAPK (FIG. 8I). Etoposide treatment triggered p53 phosphorylation in IRIS1 but not in the induced IRIS2 cells (Supplementary FIG. 8I).

[10] = test system: p53 and p38MAPK phosphorylation in induced IRIS2 cells; experiment: Immunoblot of p-p53 and p-p38MAPK after etoposide
Protocol: as §12

[11] = induced IRIS3, 20 mJ/cm^2 UVC in presence of 10 μM CCT007093
[12] = HME, 10 μM etoposide or 15 μM H2O2
[13] = induced IRIS3, 10 μM etoposide or 15 μM H2O2

## O=C1/C(=C/c2cccs2)CC/C1=C\c1cccs1 [CCT007093]
[1]
  p-p53 level: decreased
[2]
  p-p38MAPK level: increased
[3]; induced IRIS3, 10 μM CCT007093 alone or with UVC
  p-p38MAPK level: remained high
[3]; [11]
  p38MAPK phosphorylated (p-p38MAPK/p38MAPK ratio): ~55%
HME cells; HME under UVC, etoposide or H2O2, 10 μM CCT007093 vs vehicle
  number of TUNEL+ cells: not
HME cells; HME, 10 μM CCT007093, no stress treatment
  number of TUNEL+ cells: increased slightly yet significantly
Induced IRIS3 cells; induced IRIS3, 10 μM CCT007093, no stress treatment
  number of TUNEL+ cells: not
Induced IRIS3 cells; induced IRIS3 under UVC, etoposide or H2O2, 10 μM CCT007093 vs vehicle
  number of TUNEL+ cells: significantly increased
[4]; induced IRIS3, 10 μM CCT007093 alone
  p-p53 level: increased
[4]; [11]
  p53 phosphorylated (p-p53/p53 ratio): ~75%

## OO [H2O2]
HME cells; [12]
  number of TUNEL+ cells: markedly increased
Induced IRIS3 cells; [13]
  number of TUNEL+ cells: only modestly increasing
MCF7 cells
  level of cell death: increased
SKBR3 cells
  level of cell death: increased

## C[S+]([O-])c1ccc(-c2nc(-c3ccncc3)c(-c3ccc(F)cc3)[nH]2)cc1 (centres unmarked) [SB203580]
HME cells; HME under UVC, etoposide or H2O2, plus 10 μM SB203580 or p53 siRNA
  number of TUNEL+ cells: significantly reduced
Induced IRIS3 cells; induced IRIS3 under UVC, etoposide or H2O2, plus 10 μM SB203580 or p53 siRNA
  number of TUNEL+ cells: stayed the same
MCF7 cells; MCF7, BRCA1-IRIS silenced plus SB203580 or p53 siRNA
  dead cells induced by BRCA1-IRIS silencing: significantly reduced
SKBR3 cells; SKBR3, BRCA1-IRIS silenced plus SB203580 or p53 siRNA
  dead cells induced by BRCA1-IRIS silencing: significantly reduced

## N.N.[Cl][Pt][Cl] [cisplatin]
HOSE/survivin cells
  IC50: ~75 µM
HOSE/AKT1 cells
  IC50: ~75 µM
HOSE/vector cells
  IC50: 15 to 20 µM
HOSE/IRIS cells
  IC50: ~75 µM
HOSE/AKT3 cells
  IC50: 15 to 20 µM
HOSE/AKT2 cells
  IC50: ~75 µM
[5]
  expression of AKT1, AKT2 and survivin: modestly decreased
IGROV-1 cells
  IC50: ~5 µM
OVCAR-5 cells
  IC50: ~25 µM
MCAS cells
  IC50: ~40 µM
SK-OV-3 cells
  IC50: ~40 µM
[6]
  expression of AKT1, AKT2 and survivin: modestly decreased
[7]; high concentrations cisplatin (>50 μM)
  BRCA1-IRIS, AKT and survivin expression: abolished
[7]; low concentrations cisplatin (≦50 μM)
  BRCA1-IRIS, AKT and survivin expression: triggered
[8]
  expression of AKT1, AKT2 and survivin: modestly decreased

## COc1cc([C@@H]2c3cc4c(cc3[C@@H](O[C@@H]3O[C@@H]5CO[C@@H](C)O[C@H]5[C@H](O)[C@H]3O)[C@H]3COC(=O)[C@H]23)OCO4)cc(OC)c1O [etoposide]
HME cells; [12]
  number of TUNEL+ cells: markedly increased
Induced IRIS3 cells; [13]
  number of TUNEL+ cells: only modestly increasing
[9]; IRIS1, after etoposide treatment
  p-p38MAPK level: increased significantly
[9]; IRIS1, etoposide 5, 10 or 50 μM, 24 h
  p53 phosphorylation: triggered
[10]; induced IRIS2, after etoposide treatment
  p-p38MAPK level: sharply dropped
[10]; induced IRIS2, etoposide 5, 10 or 50 μM, 24 h
  p53 phosphorylation: not
MCF7 cells
  level of cell death: increased
SKBR3 cells
  level of cell death: increased
